Measurements as given in patent US5759836A, “Osteoarthritis-associated inducable isoform of nitric oxide synthetase” (priority 1995, dated 1998).
Several values for one entry are separate records, joined by “and”; a condition that tells them apart may be missing. Identical values can stand only once.

Tests used:
iNOS [1] = test: In vitro iNOS catalytic activity in cell-free extracts preincubated with drug (L-[3H]-arginine to L-[3H]-citrulline); format: biochemical, murine; settings: 20 min preincubation
iNOS [2] = test: iNOS protein expression, Western blot, LPS-treated RAW 264.7 cells; format: cell-based, murine
Experimental: Western Blot Analysis. Equal amounts of protein (50 μg) estimated by BCA reagent (Pierce, Rockford, Ill.) were loaded onto SDS-PAGE gels and stained to verify the concentrations of various protein fractions by examining the intensities of the protein bands on the gels. Western blot analysis was carried out from the same cell extracts. The Western-blotted membrane was probed with a specific anti-iNOS monoclonal antibody, as specified by Transduction Laboratories (Lexington, Ky.). The blots were developed using the ECL Western blot system (Amersham, Arlington Heights, Ill.). Quantitation of the bands was performed using a densitometer from Molecular Dynamics (Sunnyville, Calif.).
The protein expression data are represented as
ND = not done. NS = not significant.
A Western blot analysis of iNOS protein was carried out in cells treated with […] LPS in the presence and absence of NSAIDs for 16-18 h.

COX = settings: cited from earlier work

## CC(=O)Oc1ccccc1C(=O)O [Aspirin, aspirin]
iNOS [1]; 0.1 mM
  inhibition of iNOS catalytic activity in cell-free extracts: 10-12%
iNOS [1]; 1 mM
  inhibition of iNOS catalytic activity in cell-free extracts (specific activity in in vitro assay): ~ 45% and 45-68%
iNOS [2]; 10 mM, Western blot, 10000 µM
  decrease of iNOS expression: ~ 70%
iNOS [2]; LPS, 16-18 h, indomethacin 5 μM
  effect on iNOS expression, Western blot: significant decrease in the expression of iNOS
iNOS [2]; Mus musculus, RAW264.7, read-out: decrease of iNOS expression, 10 mM, Western blot
  inhibition at 10000 µM: 69%
iNOS [2]; Mus musculus, RAW264.7, read-out: inhibition of iNOS protein expression, 3 mM, approximate, densitometry
  inhibition at 3000 µM: ~53%
COX
  COX inhibition: an effective inhibitor of COX
  cyclooxygenase and peroxidase activity of COX: inactivates the cyclooxygenase and not the peroxidase activity
